Reference: patent publication US8592428B2 (MSD K. K., priority 2008, dated 2013)
≈ marks a conversion by molar mass, not a printed value.

experiment: Solubility in water by solution precipitation method (HPLC); assay type: physicochemical; details: water (2% DMSO), kinetic from dmso stock, from 10 mM DMSO solution, 60 minutes stirring at room temperature, compounds of the present invention
Method: For solubility in water, the solubility of a compound in water was determined by a solution precipitation method.
For an HPLC system, Agilent HPLC 1100 system was used. […] For a shaker, Microincubator M-36 (Taitec) was used. For a plate, a 96-deep well plate (Nunc. 260252) was used. For a well cap, Pre-Slit Well Cap for 96 Well PP (NALGENE. 276011) was used. For a filtration plate, MultiScreen Solubility (Millipore; MSSLBPC10) was used. For dispensation, an 8-channel electronic multipipette, Biohit Proline (Biohit), and a 96-well automatic pipetting device, Biomeck 2000 (Biomeck) were used. For a reagent used, a pure solvent for DMSO ultraviolet absorption spectrum (Dojindo 349-01025) and water (MiliQ water, manufactured by Millipore).
For a DMSO solution, a sample was prepared with DMSO to be precisely 10 mM.
Precise dispensation of 10 μL of a DMSO solution into each well of a 96-well plate was performed. Following addition of 490 μL of water to each of the wells and plate-sealing with 96-well Cap (Agilent No. 5042-1389), intense stirring processing of the plate was performed for 60 minutes at room temperature on a shaker. Subsequently, 200 μL of a treatment sample was added to a plate for centrifugal filtration, and centrifugal filtration of the sample was performed to obtain a filtrate. A sample solution was made by adding 200 μl, of a 50% aqueous acetonitrile solution to the provided filtrate.
Precise dispensation of 10 μL of a DMSO solution into each well of a 96-well plate was performed.
Detection was performed using a multi-wavelength detector (190-370 nm). For a column, the above-mentioned column was used at 40° C. A flow rate was set at 1.2 ml/min, and an amount of an injected sample at 20 μL. For a moving phase, a 0.1% aqueous phosphoric acid solution as a liquid A and acetonitrile as a liquid B were used to carry out analyses in accordance with a time schedule described below.
For the analyses, the data of UV 275 nm were adopted. […] Using the calibration curve, regression calculation of concentrations in water was carried out from Area of sample solutions (water).

| SMILES | solubility at 60 min [µM] |
| --- | --- |
| CC(=O)N1CCC[C@@H]1c1cc2[nH]c(-c3cnc(C(C)(C)O)cn3)cc2cc1Oc1ccc(C(=O)N2CCC2)nc1 [Example 21, 6-[(R)-1-acetylpyrrolidin-2-yl]-5-[6-(azetidin-1-ylcarbonyl)pyridin-3-yloxy]-2-[5-(1,1-dimethylhydroxymethyl)pyrazin-2-yl]-1H-indole] | > 170 |
| CC(=O)N1CCC[C@@H]1c1cc2[nH]c(-c3cnccn3)cc2cc1Oc1ccc(C(=O)N(C)C)nc1 [Example 25, 6-[(R)-1-acetylpyrrolidin-2-yl]-5-[6-(N,N-dimethylcarbamoyl)pyridin-3-yloxy]-2-(pyrazin-2-yl)-1H-indole] | > 170 |
| COCc1ccc(Oc2cc3cc(-c4ccccn4)[nH]c3cc2[C@H]2CCCN2C(C)=O)cn1 [Example 18, 6-[(R)-1-acetylpyrrolidin-2-yl]-5-(6-methoxymethylpyridin-3-yloxy)-2-(pyridin-2-yl)-1H-indole] | 133 (≈ 58.8 µg/mL) |
| CC(=O)N1CCC[C@@H]1c1cc2[nH]c(-c3cnc(CO)cn3)cc2cc1Oc1ccc(OCCO)nc1 [Example 14, 6-[(R)-1-acetylpyrrolidin-2-yl]-5-[6-(2-hydroxyethoxy)pyridin-3-yloxy]-2-(5-hydroxymethylpyrazin-2-yl)-1H-indole] | > 170 |
| CC(=O)N1CCC[C@@H]1c1cc2[nH]c(-c3ccc(C(C)(C)O)cn3)cc2cc1Oc1ccc(CO)nc1 [Example 8, 6-[(R)-1-acetylpyrrolidin-2-yl]-2-[5-(1,1-dimethylhydroxymethyl)pyridin-2-yl]-5-(6-hydroxymethylpyridin-3-yloxy)-1H-indole] | > 170 |
| CC(=O)N1CCC[C@@H]1c1cc2[nH]c(-c3cnccn3)cc2cc1Oc1ccc(CCO)nc1 [Example 19, 6-[(R)-1-acetylpyrrolidin-2-yl]-5-[6-(2-hydroxyethyl)pyridin-3-yloxy]-2-(pyrazin-2-yl)-1H-indole] | > 170 |
| CC(=O)N1CCC[C@@H]1c1cc2[nH]c(-c3cnccn3)cc2cc1Oc1ccc(OCCO)nc1 [Example 12, 6-[(R)-1-acetylpyrrolidin-2-yl]-5-[6-(2-hydroxyethoxy)pyridin-3-yloxy]-2-(pyrazin-2-yl)-1H-indole] | 128 (≈ 58.8 µg/mL) |
| CC(=O)N1CCC[C@@H]1c1cc2[nH]c(-c3ccc(CO)cn3)cc2cc1Oc1ccc(C(=O)N2CCC2)nc1 [Example 23, 6-[(R)-1-acetylpyrrolidin-2-yl]-5-[6-(azetidin-1-ylcarbonyl)pyridin-3-yloxy]-2-(5-hydroxymethylpyridin-2-yl)-1H-indole] | 77.6 (≈ 39.7 µg/mL) |
| CC(=O)N1CCC[C@@H]1c1cc2[nH]c(-c3ccccn3)cc2cc1Oc1ccc(OCCO)nc1 [Example 11, 6-[(R)-1-acetylpyrrolidin-2-yl]-5-[6-(2-hydroxyethoxy)pyridin-3-yloxy]-2-(pyridin-2-yl)-1H-indole] | 48.6 (≈ 22.3 µg/mL) |
| CC(=O)N1CCC[C@@H]1c1cc2[nH]c(-c3ccc(C(C)(C)O)cn3)cc2cc1Oc1ccc(C(=O)N2CCC2)nc1 [Example 24, 6-[(R)-1-acetylpyrrolidin-2-yl]-5-[6-(azetidin-1-ylcarbonyl)pyridin-3-yloxy]-2-[5-(1,1-dimethylhydroxymethyl)pyridin-2-yl]-1H-indole] | 142 (≈ 76.6 µg/mL) |
| CC(=O)N1CCC[C@@H]1c1cc2[nH]c(-c3cnc(C(C)(C)O)cn3)cc2cc1Oc1ccc(S(C)(=O)=O)nc1 [Example 22, 6-[(R)-1-acetylpyrrolidin-2-yl]-2-[5-(1,1-dimethylhydroxymethyl)pyrazin-2-yl]-5-(6-methylsulfonylpyridin-3-yloxy)-1H-indole] | > 170 |
| CC(=O)N1CCC[C@@H]1c1cc2[nH]c(-c3cnccn3)cc2cc1Oc1ccc(CO)nc1 [Example 6, 6-[(R)-1-acetylpyrrolidin-2-yl]-5-(6-hydroxymethylpyridin-3-yloxy)-2-(pyrazin-2-yl)-1H-indole] | > 170 |
| CC(=O)N1CCC[C@@H]1c1cc2[nH]c(-c3cnccn3)cc2cc1Oc1ccc(C(=O)N2CCC2)nc1 [Example 20, 6-[(R)-1-acetylpyrrolidin-2-yl]-5-[6-(azetidin-1-ylcarbonyl)pyridin-3-yloxy]-2-(pyrazin-2-yl)-1H-indole] | 122 (≈ 59.1 µg/mL) |
